Experimental findings from US7576241B2, “Derivatives of amidines, their preparation, their use as medicaments and the pharmaceutical compositions containing them” (Ipsen Pharma S.A.S., priority 1998, dated 2009) are described below.

One may read the melting point as the temperature of the solid-liquid transition. As for `COc1cc(O)c(CNCCc2ccc(N=C(N)c3cccs3)cc2)c(OC)c1` [Example 64, N′-(4-{2-[(2-hydroxy-4,6-dimethoxybenzyl)amino]ethyl}phenyl)-2-thiophenecarboximidamide], the melting point is above 230 °C.
`COc1cc(C=CCNCCc2ccc(N=C(N)c3cccs3)cc2)cc(OC)c1O.Cl.Cl` [Example 62, N′-[4-(2-{[3-(4-hydroxy-3,5-dimethoxyphenyl)-2-propenyl]amino}ethyl)phenyl]-2-thiophenecarboximidamide dihydrochloride] had a melting point of 182 to 184 °C.
Molecule `COc1cc(C=CCNCCc2ccc(N=C(N)c3cccs3)cc2)ccc1O.O=C(O)/C=C/C(=O)O.O=C(O)/C=C/C(=O)O` [Example 61, N′-[4-(2-{[3-(4-hydroxy-3-methoxyphenyl)-2-propenyl]amino}ethyl)phenyl]-2-thiophenecarboximidamide difumarate] had a melting point of 174 to 176 °C.
`NC(=Nc1ccc(CCNC(=O)/C=C/c2ccccc2O)cc1)c1cccs1` [Example 39, (E)-N-(4-{[amino(2-thienyl)methylidene]amino}phenethyl)-3-(2-hydroxyphenyl)-2-propenamide] had a melting point of 145 to 155 °C.
In turn, `COc1cc(/C=C/C(=O)NCCc2ccc(N=C(N)c3cccs3)cc2)cc(OC)c1O` [Example 42, (E)-N-(4-{[amino(2-thienyl)methylidene]amino}phenethyl)-3-(4-hydroxy-3,5-dimethoxyphenyl)-2-propenamide] showed a melting point of 196.4 to 197.6 °C.
Then `NC(=Nc1ccc(CCNCc2ccc3cccc(O)c3n2)cc1)c1cccs1` [Example 59, N′-[4-(2-{[(8-hydroxy-2-quinolinyl)methyl]amino}ethyl)phenyl]-2-thiophenecarboximidamide], with above 230 °C; and `I.NC(=Nc1ccc(CCNCC=Cc2ccccc2)cc1)c1cccs1` [Example 60, N′-[4-(2-{[3-phenyl-2-propenyl]amino}ethyl)phenyl]-2-thiophenecarboximidamide hydroiodide], with 151 to 153 °C.
Regarding `CC(=O)Nc1ccc(CNCCc2ccc(N=C(N)c3cccs3)cc2)cc1` [Example 58, N-(4-{[(4-{[amino(2-thienyl)methylidene]amino}phenethyl)-amino]methyl}phenyl)acetamide], the melting point lay within 237.8 to 239 °C.
